Results as given in patent publication US10945992B1, “Dosage forms of rofecoxib and related methods” (Tremeau Pharmaceuticals, Inc., priority 2019, dated 2021).
Like-named read-outs stand apart in the source and are kept apart here.

Assay: TRM-201-PK-102 single-dose four-period crossover pharmacokinetic study, fasted healthy subjects
Assay type: in vivo, human
Conditions: for geometric mean ratio AUC0-∞ to historical data for the 25 mg VIOXX product / geometric mean ratio Cmax to historical data for the 25 mg VIOXX product: sensitivity analysis; for AUC(0-inf) / Cmax: human, plasma, oral
Description: A Single-Dose, Open-Label, Phase 1, Four-Period Crossover Pharmacokinetic Study of TRM-201 (Rofecoxib) 12.5 mg, 17.5 mg, 20 mg and 25 mg Administered to Healthy Subjects in a Fasting State, with Comparison to Historical Pharmacokinetic Parameters of Previously Marketed Rofecoxib (“TRM-201-PK-102” or “102 PK Study”)
This was a single-center, open-label four-period crossover PK study of TRM-201. The study included 24 subjects who received TRM-201 as a single dose of 12.5 mg, 17.5 mg, 20 mg and 25 mg to assess the PK of TRM-201 in healthy volunteers under fasted conditions. Subjects were randomized to one of four treatment sequences. The PK data from the current study along with the data from the TRM-201-PK-101 study (Example 4) was used to compare to historical pharmacokinetic parameters of previously marketed rofecoxib, all in a fasted state.
In each of the four dosing periods, subjects fasted overnight for at least 10 hours before study drug dosing. While fasting, subjects had nothing to eat and only water to drink. Water was permitted as desired, except for the period between 1 hour before and 1 hour after study drug dosing (excepting as permitted for dosing). After the 2-hour PK blood sample, subjects were allowed one 250-mL cup of clear apple juice. After the 4-hour PK blood sample, subjects were served a light lunch. Following the light lunch, subjects received standardized meals according to the clinic's standard procedures that were scheduled at consistent times and at least 15 minutes before or 15 minutes after PK sampling time points. Blood was withdrawn for PK analysis at predefined time points. For each dosing period the last time point was 120 hours after dosing with study drug (Day 6). After the 120 hour PK sample, the EOP procedures was completed, subjects remained in-clinic for the in-between dose period day (Days 7, 14, and 21) and began the next dosing period starting with an overnight fast for at least 10 hours on Day −1 of the subsequent dosing period. Pharmacokinetic and safety endpoints were evaluated.
The study drug, TRM-201, was an immediate-release tablet that contained 12.5 mg rofecoxib, 17.5 mg rofecoxib, 20 mg rofecoxib or 25 mg rofecoxib. The 7.25-mm diameter tablets were off-white, round, and uncoated with no markings. TRM-201 tablets were for oral administration.
For each sample, approximately 3 mL of blood were drawn. The samples were obtained by a straight stick or via an in-dwelling intravenous (IV) catheter in a forearm vein. Additional details for the collection, processing, storage, and shipping of PK samples were provided in the study manual.
Pharmacokinetic samples will be analyzed using a validated assay for rofecoxib in human plasma. Assay results and validation details will be provided in a separate bioanalytical report. The following PK parameters for rofecoxib will be calculated as primary endpoints using standard noncompartmental methods: AUC0-∞ and Cmax. Secondary endpoints include Tmax, and t1/2. Additional PK parameters (e.g., CL/F, and Vd/F) will also be calculated using standard noncompartmental methods.
Individual plasma concentrations for rofecoxib and PK sampling time deviation data will be presented in a data listing. Plasma concentration data will be summarized by time point using the following descriptive statistics: number of subjects, arithmetic mean, SD, coefficient of variation (CV), geometric mean, natural-log-scale SD, geometric CV, median, minimum, and maximum. Individual plasma concentration versus actual time profiles were presented on both linear and semilogarithmic scales. Additionally, arithmetic mean concentration versus scheduled time profiles were presented on linear scales and geometric means on semilogarithmic scales.
The PK parameters of rofecoxib were analyzed based on the actual sampling times. […]

## CS(=O)(=O)c1ccc(C2=C(c3ccccc3)C(=O)OC2)cc1 [TRM-201, 4-[4-(methylsulfonyl)phenyl]-3-phenyl-2(5H)-furanone]
17.5 mg, 15 minutes
  arithmetic mean plasma concentration: 2.42 ng/mL
17.5 mg, 45 minutes
  arithmetic mean plasma concentration: 93 ng/mL
TRM-201 17.5 mg
  geometric mean ratio AUC0-∞ to historical data for the 25 mg VIOXX product: 0.819
  geometric mean ratio Cmax to historical data for the 25 mg VIOXX product: 1.03
TRM-201 20 mg
  geometric mean ratio AUC0-∞ to historical data for the 25 mg VIOXX product: 0.934
  geometric mean ratio Cmax to historical data for the 25 mg VIOXX product: 1.19
female, 12.5 mg, 102 study, females, read-out: arithmetic mean AUC0-∞
  AUC(0-inf): 2240 ng·h/mL
female, 12.5 mg, 102 study, females, read-out: arithmetic mean Cmax
  Cmax: 168 ng/mL
female, 12.5 mg, 102 study, females, read-out: geometric mean AUC0-∞
  AUC(0-inf): 2170 ng·h/mL
female, 12.5 mg, 102 study, females, read-out: geometric mean Cmax
  Cmax: 160 ng/mL
female, 17.5 mg, 102 study, females, read-out: arithmetic mean AUC0-∞
  AUC(0-inf): 3650 ng·h/mL
female, 17.5 mg, 102 study, females, read-out: arithmetic mean Cmax
  Cmax: 266 ng/mL
female, 17.5 mg, 102 study, females, read-out: geometric mean AUC0-∞
  AUC(0-inf): 3490 ng·h/mL
female, 17.5 mg, 102 study, females, read-out: geometric mean Cmax
  Cmax: 251 ng/mL
female, 20 mg, 102 study, females, read-out: arithmetic mean AUC0-∞
  AUC(0-inf): 4270 ng·h/mL
female, 20 mg, 102 study, females, read-out: arithmetic mean Cmax
  Cmax: 314 ng/mL
female, 20 mg, 102 study, females, read-out: geometric mean AUC0-∞
  AUC(0-inf): 4160 ng·h/mL
female, 20 mg, 102 study, females, read-out: geometric mean Cmax
  Cmax: 293 ng/mL
female, 25 mg, 102 study, females, read-out: arithmetic mean AUC0-∞
  AUC(0-inf): 5090 ng·h/mL
female, 25 mg, 102 study, females, read-out: arithmetic mean Cmax
  Cmax: 388 ng/mL
12.5 mg, 102 study only, read-out: arithmetic mean AUC0-∞
  AUC(0-inf): 2010 ng·h/mL
12.5 mg, 102 study only, read-out: arithmetic mean Cmax
  Cmax: 151 ng/mL
12.5 mg, 102 study only, read-out: geometric mean AUC0-∞
  AUC(0-inf): 1880 ng·h/mL
12.5 mg, 102 study only, read-out: geometric mean Cmax
  Cmax: 144 ng/mL
12.5 mg, 102 study, 18-40 years, read-out: arithmetic mean AUC0-∞
  AUC(0-inf): 1680 ng·h/mL
12.5 mg, 102 study, 18-40 years, read-out: arithmetic mean Cmax
  Cmax: 164 ng/mL
12.5 mg, 102 study, 18-40 years, read-out: geometric mean AUC0-∞
  AUC(0-inf): 1570 ng·h/mL
12.5 mg, 102 study, 18-40 years, read-out: geometric mean Cmax
  Cmax: 156 ng/mL
12.5 mg, 102 study, 41-52 years, read-out: arithmetic mean AUC0-∞
  AUC(0-inf): 2090 ng·h/mL
12.5 mg, 102 study, 41-52 years, read-out: arithmetic mean Cmax
  Cmax: 140 ng/mL
12.5 mg, 102 study, 41-52 years, read-out: geometric mean AUC0-∞
  AUC(0-inf): 1880 ng·h/mL
12.5 mg, 102 study, 41-52 years, read-out: geometric mean Cmax
  Cmax: 133 ng/mL
12.5 mg, 102 study, 53-60 years, read-out: arithmetic mean AUC0-∞
  AUC(0-inf): 2270 ng·h/mL
12.5 mg, 102 study, 53-60 years, read-out: arithmetic mean Cmax
  Cmax: 150 ng/mL
12.5 mg, 102 study, 53-60 years, read-out: geometric mean AUC0-∞
  AUC(0-inf): 2240 ng·h/mL
12.5 mg, 102 study, 53-60 years, read-out: geometric mean Cmax
  Cmax: 143 ng/mL
12.5 mg, 102 study, Black or African-American subjects, read-out: arithmetic mean AUC0-∞
  AUC(0-inf): 1660 ng·h/mL
12.5 mg, 102 study, Black or African-American subjects, read-out: arithmetic mean Cmax
  Cmax: 143 ng/mL
12.5 mg, 102 study, Black or African-American subjects, read-out: geometric mean AUC0-∞
  AUC(0-inf): 1590 ng·h/mL
12.5 mg, 102 study, Black or African-American subjects, read-out: geometric mean Cmax
  Cmax: 142 ng/mL
12.5 mg, 102 study, Hispanic or Latino subjects, read-out: arithmetic mean AUC0-∞
  AUC(0-inf): 2210 ng·h/mL
12.5 mg, 102 study, Hispanic or Latino subjects, read-out: arithmetic mean Cmax
  Cmax: 157 ng/mL
12.5 mg, 102 study, Hispanic or Latino subjects, read-out: geometric mean AUC0-∞
  AUC(0-inf): 2090 ng·h/mL
12.5 mg, 102 study, Hispanic or Latino subjects, read-out: geometric mean Cmax
  Cmax: 146 ng/mL
12.5 mg, 102 study, White subjects, read-out: arithmetic mean AUC0-∞
  AUC(0-inf): 2110 ng·h/mL
12.5 mg, 102 study, White subjects, read-out: arithmetic mean Cmax
  Cmax: 153 ng/mL
12.5 mg, 102 study, White subjects, read-out: geometric mean AUC0-∞
  AUC(0-inf): 1960 ng·h/mL
12.5 mg, 102 study, White subjects, read-out: geometric mean Cmax
  Cmax: 144 ng/mL
12.5 mg, 102 study, body weight 47-70 kg, read-out: arithmetic mean AUC0-∞
  AUC(0-inf): 1850 ng·h/mL
12.5 mg, 102 study, body weight 47-70 kg, read-out: arithmetic mean Cmax
  Cmax: 175 ng/mL
12.5 mg, 102 study, body weight 47-70 kg, read-out: geometric mean AUC0-∞
  AUC(0-inf): 1690 ng·h/mL
12.5 mg, 102 study, body weight 47-70 kg, read-out: geometric mean Cmax
  Cmax: 165 ng/mL
12.5 mg, 102 study, body weight 70.1-77 kg, read-out: arithmetic mean AUC0-∞
  AUC(0-inf): 2500 ng·h/mL
12.5 mg, 102 study, body weight 70.1-77 kg, read-out: arithmetic mean Cmax
  Cmax: 155 ng/mL
12.5 mg, 102 study, body weight 70.1-77 kg, read-out: geometric mean AUC0-∞
  AUC(0-inf): 2420 ng·h/mL
12.5 mg, 102 study, body weight 70.1-77 kg, read-out: geometric mean Cmax
  Cmax: 147 ng/mL
12.5 mg, 102 study, body weight 77.1-90 kg, read-out: arithmetic mean AUC0-∞
  AUC(0-inf): 1790 ng·h/mL
